According to patent US20170202792A1, “METHOD FOR TREATING TAU-ASSOCIATED DISEASES” (NATIONAL TAIWAN NORMAL UNIVERSITY, priority 2016, published 2017):

Experiments:
Recombinant human GSK-3β = biological target: T1, Recombinant human GSK-3β (Homo sapiens, UniProt P49841); test: GSK-3β kinase activity, ADP-Glo Kinase Assay; format: biochemical
T1 construct: purchased Promega V1991
Protocol: The ability of the compound (I) and SB216763 (compound (II)) for inhibiting GSK-3β activity is evaluated in the following paragraphs, wherein compound (II) is a known GSK-3β inhibitor in the art (Product No. 53442, Sigma). GSK-3β kinase activity was measured in the presence of the tested compounds (I) and (II) using ADP-Glo™ Kinase Assay system (Promega). Recombinant human GSK-3β (Product code V1991, Promega) was used as the enzyme source, and the GSK-3β substrate is derived from human muscle glycogen synthase 1 peptide ([…](pS)EDEEE) which corresponds to a region of glycogen synthase that is phosphorylated by GSK-3β. Reactions were performed at 30° C. for 30 minutes in 25 μL mixture that contained 25 μM ATP, 0.2 mg/mL GSK-3β substrate, 1 ng of GSK-3β, and serial dilutions of compound (I) or compound (II). Kinase activity data were measured as relative light units (RLU) directly correlated with the amount of ADP produced and FIG. 1 showing the analysis results.
The IC50 values of compound (I) and compound (II) were determined by using SigmaPLOT software.

[1] = system: mouse hippocampal primary culture cells; test: Mouse hippocampal primary culture under tau toxicity (WT and GFX); format: cell-based; details: 10 nM WT and GFX; 0.1, 0.25, 0.5 μM compound (I), 12 hours
Protocol: The mouse hippocampal primary culture cells were isolated from the hippocampi of C57BL/6J mouse embryos at days 16-18. On days in vitro (DIV) 4 and 7, 2 μM of cytosine arabinoside was added to the culture medium for reducing the glial cell populations. On DIV 9, the cells were treated with 10 nM of Wortmannin (WT) and GF109203X (GFX) to induce tau hyperphosphorylation for mimicking an AD condition. 0, 0.1, 0.25, and 0.5 μM of compound (I) were then added to the cells at DIV 9. Cells were harvested 12 hours later for immunocytochemical staining with NeuN (for neuron) and MAP2 (for neurite morphology) antibodies.

[2] = system: p-tau (Ser202, Thr231 and Ser396); test: Western blot of phosphorylated tau in tauRD-DsRed SH-SY5Y cells; format: cell-based, human; details: untreated = 100%
Protocol: Western blotting analysis was applied for examining the expressions of HSPB1 and GRP78, the method was as follows: total proteins were extracted using RIPA buffer, which comprised 50 mM Tris-HCl, 150 mM NaCl, 1 mM EDTA, 1 mM EGTA, 0.1% SDS, 0.5% sodium deoxycholate, 1% Triton X-100, and a protease inhibitor cocktail (Calbiochem). […] of total proteins were separated on 10% SDS-PAGE gels and blotted onto nitrocellulose membrane which were stained (4° C., overnight) with antibodies against DsRed (1:500; Santa Cruz), HSPB1 (1:500; Santa Cruz), and GRP78 (1:200; Santa Cruz). Next, immunoreactive bands were detected using horseradish peroxidase-conjugated goat anti-mouse, goat anti-rabbit, or donkey anti-goat IgG antibodies (1:5000; GeneTex) and chemiluminescent substrate (Millipore).
The methods of cell culture and western blot analysis are similar to that described above, except that the antibodies against GSK-3β (total and p-Ser9) (1:1000; Cell Signaling), total tau (1:500; Dako), p-tau (Ser202) (1:500; AnaSpec), p-tau (Thr231 and Ser396) (1:1000; Invitrogen), [3-actin (1:5000; Millipore), or GAPDH (1:2000; MDBio) were used herein for evaluation of the expression levels thereof in the cells.

[3] = system: SH-SY5Y tauRD-DsRed cells; test: Neurite outgrowth in SH-SY5Y tauRD-DsRed cells (TUBB3 staining); format: cell-based, human; details: 10 μM, pre-treated 8 hours, doxycycline 7 days; untreated = 100%
Protocol: We used SH-SY5Y human cells expressing a DsRed-tagged proaggregation mutant (ΔK280) of the C-terminal repeat domain of tau (tauRD-Gln^244-Glu^372 of the longest tau^441 isoform). The recombinant tauRD-DsRed construct was under the control of a tetracycline-regulated, hybrid human cytomegalovirus (CMV)/TetO2 promoter that can be induced by adding doxycycline. The cell lines were grown in medium containing blasticidin (5 μg/mL) and hygromycin (100 μg/mL).
SH-SY5Y tauRD-DsRed cells were seeded in 6-well plates (1×10^5/well) in a medium containing all-trans retinoic acid (10 μM, Sigma). After 48 hours of incubation, cells were pre-treated with 10 μM Congo red and 10 μM compound (I) for 8 hours; after which, tauRD-DsRed expression was induced with 1μg/mL doxycycline for 7 days. The cells were then fixed in 4% paraformaldehyde, permeabilized with 0.1% Triton X-100, blocked in 3% BSA, and then stained with the primary antibody anti-TUBB3 (against neuronal Class III β-tubulin) (1:1000; Covance) and with a secondary anti-rabbit Alexa Fluor® 555 antibody (1:500; Molecular Probes). Nuclei were counterstained with 4′,6-diamidino-2-phenylindole (DAPI). The total outgrowth in the untreated, Congo red-treated, and compound (I)-treated cells was assessed using MetaXpress image acquisition and analysis software.

[4] = system: transgenic flies overexpressing tau protein driven by Eq-gal4 (Eq>tau); test: In vivo tau toxicity, notal bristle number of flies; parameters: species or system Drosophila; details: 25 μM and 50 μM of compound (I) vs DMSO
Protocol: 10 Eq-ga14 flies were treated with DMSO as the control group, and transgenic flies overexpressing tau protein driven by Eq-ga14 (Eq>tau) were treated with DMSO, 25 μM of compound (I), and 50 μM of compound (I) respectively in each group of 10 flies. The number of notal bristle of the flies was then calculated.

T1 sequence (P49841 whole entry): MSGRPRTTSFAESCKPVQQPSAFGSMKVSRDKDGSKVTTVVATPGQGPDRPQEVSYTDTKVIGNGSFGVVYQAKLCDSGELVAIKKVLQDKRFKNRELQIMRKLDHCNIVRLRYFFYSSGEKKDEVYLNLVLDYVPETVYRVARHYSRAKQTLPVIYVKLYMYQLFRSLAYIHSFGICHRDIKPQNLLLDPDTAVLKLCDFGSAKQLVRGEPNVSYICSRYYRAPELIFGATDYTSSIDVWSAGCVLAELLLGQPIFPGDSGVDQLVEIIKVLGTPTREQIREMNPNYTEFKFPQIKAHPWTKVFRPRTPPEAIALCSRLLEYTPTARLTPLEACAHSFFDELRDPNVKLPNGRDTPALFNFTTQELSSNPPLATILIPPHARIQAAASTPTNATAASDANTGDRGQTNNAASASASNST

In the case of CCCCC/C=C\C/C=C\C/C=C\C/C=C\CCCC(=O)Nc1ccc(O)cc1 [compound (I), (5Z, 8Z, 11Z,14Z)-N-(4-Hydroxyphenyl)icosa-5 ,8 , 11,14-tetraen amide], the IC50 (Recombinant human GSK-3β; 25 μM ATP, 1 ng GSK-3β, 30° C., 30 minutes) is reported as 5.35 µM, the remaining activity at 0.018 µM (Recombinant human GSK-3β; concentration of compound (I) 0.018 μM, read-out: residual activity of GSK-3β) is reported as 69.6 ± 2% and the “neuronal survival and neurite length” value [1] is reported as “alleviate the phenomena of low neuronal survival rate and short neurite length”. The “phosphorylated tau Ser202 level relative to untreated cells” value [2] was 32%-42%, the “phosphorylated tau Ser396 level relative to untreated cells” value [2] was 54%-78% and the “phosphorylated tau Thr231 level relative to untreated cells” value [2] was 37%-48%. For the same compound, the “neurite growth relative to untreated cells” value [3] was 140% and the “number of notal bristle” value [4] was “effectively reduced the notal bristle loss”.
